# According to US9242009B2, “Compositions and methods to treat neurodegenerative diseases” (The General Hospital Corporation, priority 2012, dated 2016):
# Assays:
# SH-SY5Y cells = assay: Intracellular sulfide levels in SH-SY5Y cells (HPLC); assay type: cell-based, Human; settings: 20 μM, SH-SY5Y
# Protocol: Human neuroblastoma SH-SY5Y cells were cultured in Eagle's medium/Ham's F-12 50/50 Mix (DMEM/F12, Cellgro by Mediatech, Inc.) supplemented with 10% fetal bovine serum (FBS) and 1% penicillin/streptomycin. The cells were seeded into 96 well plates (2×10^4 cells per well) for OGD and measurements of toxicity, 6 cm dishes (5×10^5 cells per dish) for measurements of sulfide and reduced-glutathione (GSH), or 10 cm dishes (1×10^6 cells per dish) for measurements of intracellular calcium. Cell culture medium was replaced every 2 days, and the cultures were maintained at 37° C. in 95% air/5% CO2 in a humidified incubator. Cells were used after reaching 80% confluent.
# Concentration of free sulfide in SH-SY5Y cells was measured using high performance liquid chromatography (HPLC) (Tokuda et al. (2012) Antioxidants & Redox Signaling). Briefly, SH-SY5Y cells were seeded into 6 cm dishes (5×10^5 cells per dish). After being 80% confluent, 20 μM H2S donor was added to the dish and incubated at 37° C. Cells were washed with ice-cold Tris-HCl (100 mM, PH 9.5, DTPA 0.1 mM) buffer, scraped, transferred to microfuge tubes, and centrifuged. MBB (10 mM in acetonitrile, 50 μl) was added to 100 μl of supernatant. After 30 minutes of incubation at room temperature in dark, 50 μl of 200 mM 5-sulfosalicylic acid (SSA) was added. After centrifugation, supernatant was analyzed by HPLC. For sulfide levels in medium, after centrifugation, supernatant was used for MBB reaction as above.
# In contrast, incubation of SH-SY5Y cells with S-memantine increased intracellular sulfide level more markedly than incubation with ACS48 at all time points after addition (˜10 fold at 4 hours, P<0.001 by two-way ANOVA with Bonferroni post-test). In a separate experiment, we examined whether or not incubation with memantine itself or incubation with ACS48 and memantine would affect intracellular sulfide levels in SH-SY5Y cells.
# [1] = test system: murine primary cortical neurons; assay: Oxygen-glucose deprivation (OGD) of murine primary cortical neurons, LDH release; assay type: cell-based, mice
# Protocol: Primary neuronal cultures were prepared from the cortex of embryonic day 15 C57BL6J mice. In brief, brains were harvested and the hemispheres were dissected under a microscope. The cortical neurons were dissociated in Neurobasal medium (Gibco) with B27 supplement (antioxidant plus, Gibco). The cells were seeded into 24 well plates coated with poly-D-lysine (Becton Dickinson Labware, 2×10^5 cells per well), followed by the medium-change with fresh one on the next day. The half of culture medium was replaced with Neurobasal medium witn B27 supplement (antioxidant minus) every other day, and the cultures were maintained at 37° C. in 95% air/5% CO2 in a humidified incubator. Cells were used for experiments 11 days after seeding.
# OGD for primary cortical neurons was performed with the similar protocol as above (FIG. 3B). Briefly, the culture medium was replaced with deoxygenated Neurobasal medium without glucose, and then placed in the hypoxic chamber for 2.5 hours. After OGD, the medium was replaced with Neurobasal medium with glucose and incubated for 21 hours at 37° C. in 95% air/5% CO2 in a humidified incubator. […]
# A microtiter plate containing cells was centrifuged at 250×g for 10 minutes and the supernatant was used for LDH measurement with LDH Cytotoxicity Detection Kit (Roche). […] Percentage of released LDH was calculated with following formula: {LDH (medium)/LDH (medium+cell)×100}. […]
# [2] = test system: murine primary cortical neurons; assay: Cytotoxicity of H2S donors to murine primary cortical neurons (LDH release); assay type: cell-based, mice; settings: 50 μM; 24 hours; without memantine
# Protocol: A microtiter plate containing cells was centrifuged at 250×g for 10 minutes and the supernatant was used for LDH measurement with LDH Cytotoxicity Detection Kit (Roche). After aspirating the medium, remaining cells were washed with PBS, then, 100 μl of 1% Triton-X was added to each well, followed by incubation at 37° C. for 30 minutes. Medium and lysates were used for LDH measurement at wavelength 492 nm. Percentage of released LDH was calculated with following formula: {LDH (medium)/LDH (medium+cell)×100}. Average value of control (cells without OGD) was deducted as background.
# cleaved caspase-3 = assay: Immunoblot of cleaved caspase-3 in SH-SY5Y after OGD; assay type: cell-based, Human; settings: 50 μM added 8 hours after end of OGD; 15 hours OGD, 24 hours reoxygenation
# Protocol: OGD for SH-SY5Y was performed by placing cells in a hypoxia chamber ([…] Technologies Inc.) for 15 hours, followed by 24 hours of reoxygenation as previously reported (FIG. 3A) (Serra-Pérez et al. (2008) Journal of Neurochemistry 106, 1237-1247). Briefly, medium was replaced with glucose-free RPMI 1640 with L-glutamine (Cellgro by Mediatech, Inc), deoxygenated with anaerobic gas mixture (93% N2-5% CO2-2% H2) for 30 minutes before use. Cells were then placed in a hypoxia chamber, flushed with anaerobic gas mixture (93% N2-5% CO2-2% H2) and incubated at 37° C. […]
# Protein levels in SH-SY5Y were determined by standard immunoblot techniques using primary antibodies (1:1,000, Cell Signaling Technology Inc., Danvers, Mass.) against cleaved caspase-3, caspase-3, phosphorylated Akt at threonine 308, Akt, phosphorylated ERK1/2 at threonine 202 and tyrosine 204, Erk1/2, β-tubulin and phosphorylated tau protein at serine 202 and threonine 205 (1:250; Thermo scientific, MN1020), tau protein (1:1000; Thermo scientific, MN1010). Bound antibody was detected with a horseradish peroxidase-linked antibody directed against rabbit IgG (1:10,000˜1:25,000; Cell Signaling Technology Inc.), or mouse IgG (1:2,000; GE healthcare, NA931V) and was visualized using chemiluminescence with ECL Advance kit (GE healthcare).
# SH-SY5Y = assay: Amyloid beta-induced toxicity in SH-SY5Y (LDH release, MTT); assay type: cell-based, Human; settings: 24 hours incubation with Aβ1-42 at 20 μM
# Protocol: FIG. 12A-B is a set of two bar graphs showing cell viability of SH-SY5Y cells exposed to 20 μM amyloid beta (Aβ) and treated with memantine, ACS48, or S-memantine at 20 or 50 μM. Cell viability was estimated by LDH release assay in the left graph and MTT assay in the right graph.
# [3] = test system: murine primary cortical neurons; assay: Amyloid beta-induced toxicity in murine primary cortical neurons (LDH release, MTT); assay type: cell-based, mice; settings: 24 hours incubation with Aβ1-42 at 20 μM
# Protocol: FIG. 13A-B is a set of two bar graphs depicting cell viability of murine primary cortical neurons exposed to 20 μM amyloid beta (Aβ) and treated with memantine, ACS48, or S-memantine at 5, 10, or 30 μM. Cell viability was estimated by LDH release assay in the left graph and MTT assay in the right graph.
structure (smiles),measurement,setting,value
"C[C@]12C[C@@H]3C[C@](C)(C1)C[C@@](NC(=O)c1ccc(-c4cssc4=S)cc1)(C3)C2 [S-memantine, N-((1r,3R,5S,7r)-3,5-dimethyladamantan-1-yl)-4-(3-thioxo-3H-1,2-dithiol-4-yl)-benzamide]",Intracellular sulfide levels,SH-SY5Y cells; 37° C.,increased intracellular sulfide levels
same,Intracellular sulfide level relative to incubation with ACS48,SH-SY5Y cells; at 4 hours,~10 fold
same,Neuroprotective effect after OGD (LDH release),"[1]; 50 μM added 30 minutes after end of OGD, 2.5 hours OGD, 21 hours reoxygenation",more robust neuroprotective effects compared to ACS48 or memantine
same,Cell viability after OGD,[1]; incubation starting at 30 minutes or 2 hours after OGD,improved
same,LDH release (cytotoxicity),[2],did not induce LDH release
same,Caspase-3 activation after OGD,cleaved caspase-3,prevented caspase-3 activation
same,Cell viabilities after Aβ1-42 compared with memantine,SH-SY5Y,improved cell viabilities more markedly than did memantine
same,Cell viabilities after Aβ1-42,SH-SY5Y; compound 20 or 50 μM,improved cell viabilities
same,Cell viabilities after Aβ1-42 compared with memantine,[3],improved cell viabilities more markedly than did memantine
same,Cell viabilities after Aβ1-42,"[3]; compound 5, 10 or 30 μM",improved cell viabilities
